A short description of series [1]: Anticonvulsive action, maximal electroshock (MES), mouse i.p. Format: in vivo. The text has this:
(§1) ^3) Mouse i.p.: MES = maximal electroshock, PTZ = s.c. pentetrazol
(§2) ^5) in % of the protected animals
Background: In the maximal electroshock model the usual endpoint is tonic extension of the hind limbs.

Series [2] in a line: Anticonvulsive action, s.c. pentetrazol (PTZ), mouse i.p. It counts as in vivo.
Source text: as §1, §2

A short description of series [3]: Octanol/water partition coefficient. Format: physicochemical. The source says:
^2) Octanol/water partition coefficient, n = not measured

The nature of series [4]: Maximal electroshock, rat p.o. Format: in vivo. To be noted: po. The method, then: The compounds according to the invention were tested in vivo for their anticonvulsive action (Table 1) in mice (i.p. administration) or rats (p.o. administration) according to the internationally customary standard (Pharmac. Weekblad, Sc. Ed. 14, 132 (1992) and Antiepileptic Drugs, Third. Ed., Raven Press, New York 1989).
(§3) Analogous results were obtained for the oral action.

A further series is described as follows: in vivo. The note with it: rat, po.
Source text: as §3

The mark [5] stands for this setting: ip, mouse i.p., s.c. pentetrazol, read-out: Action, % of the protected animals (PTZ).
Where [6] appears, read: ip, mouse i.p., MES, 100 mg/kg, read-out: Action, % of the protected animals (MES).
[7] abbreviates: ip, mouse i.p., s.c. pentetrazol, 100 mg/kg, read-out: Action, % of the protected animals (PTZ).
Where [8] appears, read: ip, mouse i.p., MES, read-out: Action, % of the protected animals (MES).

A value given as a limit tells only on which side of the number the result lay.

In general, logP refers to the decadic logarithm of the partition coefficient of the neutral form, usually between octanol and water. Low values mean lower lipophilicity, high ones higher lipophilicity. For the molecule `O=c1[nH]nnc2nn(Cc3ccc(Cl)cc3)cc12` [Compound 8, 6-(4-chlorobenzyl)-3,6-dihydropyrazolo[3,4-d][1,2,3]triazin-4-one], the responders at 300 mg/kg is 100% in series [1] (ip, mouse i.p., MES, 300 mg/kg, read-out: Action, % of the protected animals (MES)) and 100% in series [2] (setting [5]). Further, the lipophilicity (logP) in series [3] was 1.88.

In the case of `O=c1[nH]nnc2nn(Cc3cccc(C(F)(F)F)c3)cc12` [Compound 6, 6-(3-trifluoromethylbenzyl)-3,6-dihydropyrazolo[3,4-d][1,2,3]triazin-4-one], the figures for the responders at 100 mg/kg in series [1] (setting [6]) and in series [2] (setting [7]) were 66% and 20%, respectively. In series [3], the logP stood at 2.02.

With `Cc1c2c(=O)[nH]nnc2nn1Cc1ccccc1Cl` [Compound 10, 6-(2-chlorobenzyl)-5-methyl-3,6dihydropyrazolo[3,4-d][1,2,3]triazin-4one], in series [1] (setting [6]), the responders at 100 mg/kg worked out at 66%. Further, the responders at 300 mg/kg in series [2] (setting [5]) came to 0%.

In the case of `Cc1ccccc1Cn1cc2c(=O)[nH]nnc2n1` [Compound 4, 6-(2-methylbenzyl)-3,6-dihydropyrazolo[3,4-d][1,2,3]triazin-4-one], in series [1] (setting [8]), the responders at 30 mg/kg was found to be 100%. In addition, the responders at 300 mg/kg in series [2] (setting [5]) worked out at 100%. The molecule further registered a logP in series [3] of 0.74.

As to `NC(=O)N1c2ccccc2C=Cc2ccccc21` [Carbamazepine, reference compound], the responders at 100 mg/kg turned out to be 100% in series [1] (setting [6]) and 0% in series [2] (setting [7]).

Consider `O=c1[nH]nnc2nn(Cc3ccc(F)cc3)cc12` [Compound 7, 6-(4-fluorobenzyl)-3,6-dihydropyrazolo[3,4-d][1,2,3]triazin-4-one], for which, in series [1] (setting [6]), the responders at 100 mg/kg amounted to 66%. The responders at 300 mg/kg in series [2] (setting [5]) stood at 100%. The logP in series [3] turned out to be 1.28.

For `O=c1[nH]nnc2nn(Cc3ccccc3)cc12` [Compound 12, 6-benzyl-3,6-dihydropyrazolo[3,4-d][1,2,3]triazin-4-one], the responders at 100 mg/kg in series [1] (setting [6]) is 66%; in series [2] (setting [7]), 0%.

What is called ED50 is the dose that gives a 50% effect, or the effect in half of the subjects. Consider `O=c1[nH]nnc2nn(Cc3ccccc3Cl)cc12` [Compound 2, 6-(2-chlorobenzyl)-3,6-dihydropyrazolo[3,4-d][1,2,3]triazin-4-one], for which the responders at 30 mg/kg turned out to be 100% in series [1] (setting [8]) and 60% in series [2] (ip, mouse i.p., s.c. pentetrazol, 30 mg/kg, read-out: Action, % of the protected animals (PTZ)). The lipophilicity (logP) in series [3] was 0.82. This molecule came in with an ED50 in series [4] of 3 mg/kg. For the same molecule, in “in vivo”, the TD50 is more than 250 mg/kg.

Regarding `O=c1[nH]nnc2nn(Cc3c(F)cccc3Cl)cc12` [Compound 9, 6-(2-chloro-6-fluorobenzyl)-3,6-dihydropyrazolo[3,4-d][1,2,3]triazin-4one], the responders at 10 mg/kg in series [1] (ip, mouse i.p., MES, 10 mg/kg, read-out: Action, % of the protected animals (MES)) is 20%. The responders at 100 mg/kg in series [2] (setting [7]) was found to be 100%. The lipophilicity (logP) in series [3] is 1.38.

Consider `O=c1[nH]nnc2nn(Cc3ccccc3C(F)(F)F)cc12` [Compound 3, 6-(2-trifluoromethylbenzyl)-3,6-dihydropyrazolo[3,4-d][1,2,3]triazin-4-one], for which the responders at 30 mg/kg in series [1] (setting [8]) was determined as 33%. Also, the responders at 100 mg/kg in series [2] (setting [7]) worked out at 100%. In series [3], this molecule displayed a logP of 1.74.

Consider `CCCC(CCC)C(=O)O` [Valproate, reference compound], for which the responders at 100 mg/kg turned out to be 0% in series [1] (Mus musculus, ip, read-out: Action, % of the protected animals (MES)) and 30% in series [2] (Mus musculus, ip, read-out: Action, % of the protected animals (PTZ)).

Consider `O=c1[nH]nnc2nn(Cc3ccccc3F)cc12` [Compound 1, 6-(2-fluorobenzyl)-3,6-dihydropyrazolo[3,4-d][1,2,3]triazin-4-one], for which the responders at 30 mg/kg in series [1] (setting [8]) turned out to be 100%. Also, in series [2] (setting [7]), the responders at 100 mg/kg came out at 66%.

“6-(2-chloro-4-fluorobenzyl)-5-methyl-3,6-dihydropyrazolo[3,4-d][1,2,3]triazin-4-one [Compound 11]”: the “Action, % of the protected animals (MES)” value in series [1] (mouse i.p., MES, 100 mg/kg) is reported as 66%. Further, in series [2] (mouse i.p., s.c. pentetrazol, 100 mg/kg), the “Action, % of the protected animals (PTZ)” value came to 33%.

Consider `O=c1[nH]nnc2nn(Cc3cccc(Cl)c3)cc12` [Compound 5, 6-(3-chlorobenzyl)-3,6-dihydropyrazolo[3,4-d][1,2,3]triazin-4-one], for which, in series [1] (setting [6]), the responders at 100 mg/kg came out at 100%. For the same molecule, the responders at 300 mg/kg in series [2] (setting [5]) is 0%. This molecule gave a log partition coefficient (logP) in series [3] of 1.83.

The record behind these values is patent US6316448A, “Pyrazolo[3,4-d][1,2,3] troazines having anticonvulsant activity and process for their preparation” (priority 1999, dated 2001).
